Source: patent publication US20020160932A1, “Uncompetitive inhibitors of helicase-primase” (priority 2000, published 2002)
Where two headings read alike, the source gives them in different places.

Legend:
HSV-2 G = experiment: in vitro viral replication assay, human HSV-2 G; type: cell-based, herpes simplex virus 2; conditions: for IC50: in vitro viral replication assay; for SI human HSV-2 G: selectivity index SI=(CC50/IC50);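 as to SI human HSV-2 G: ratio of CC50 to antiviral IC50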
HSV-1 Walkie = experiment: in vivo lethal challenge model, HSV-1 Walki; conditions: for in vivo lethal challenge model HSV-1 Walkie ED50: p.o., mice, 3 times a day for 5 days, survival; for ED50: Human alphaherpesvirus 1, in Mus musculus, po, 120 h, read-out: in vivo lethal challenge model HSV-1 Walkie ED50
Experimental: (§1) 6-week old female mice, strain BALB/cABom, were purchased from a commercial breeder (Bomholtgard Breeding and Research Centre Ltd).
(§2) The animals were anaesthetized with diethyl ether (Merck) in a sealed glass vessel. 50 μl of a dilution of the virus stock (dose for infection 5×10^4 Pfu) were introduced with an Eppendorf pippette into the nose of the anaesthetized animals. This dose leads to death of 90-100% of the animals due to a generalized infection with prominent respiratory and central nervous symptoms after on average between 5 and 8 days.
(§3) 6 hours after the infection, the animals were treated with doses of 0.1-100 mg/kg of body weight 3 times day at 7.00 h, 14.00 h and 19 h over a period of 5 days. The substances were dissolved in DMSO and resuspended in Tylose/PBS (Hoechst) (final concentration 1.5% DMSO, 0.5% Tylose in PBS).
(§4) After the last administration, the animals were observed further and the times of death were recorded.

HSV-2 MS = experiment: in vivo lethal challenge model, HSV-2 MS; conditions: for in vivo lethal challenge model HSV-2 MS ED50: p.o., mice, 3 times a day for 5 days, survival; for ED50: Human alphaherpesvirus 2, in Mus musculus, po, 120 h, read-out: in vivo lethal challenge model HSV-2 MS ED50, p.o., mice, 3 times a day for 5 days, survival
Experimental: as §1, §2, §3, §4

Wild-type HSV-1 (F) = experiment: in vitro viral replication assay, wild-type HSV-1 (F); type: cell-based, herpes simplex virus 1; conditions: for SI Wild-type HSV-1 (F): selectivity index SI=(CC50/IC50);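 as to SI Wild-type HSV-1 (F): ratio of CC50 to antiviral IC50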
[1] = test system: Active substance-resistant HSV-1 (F) mutants; conditions: read-out: IC50 Active substance-resistant HSV-1 (F) mutants
[2] = test system: clinical isolates (39 HSV-1 and 19 HSV-2 isolates); experiment: activity on clinical isolates; type: cell-based, herpes simplex virus; conditions: 39 HSV-1 and 19 HSV-2 isolates tested
BHV = experiment: in vitro viral replication assay, bovine BHV; type: cell-based; conditions: for IC50: in vitro viral replication assay; for SI bovine BHV: selectivity index SI=(CC50/IC50);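 as to SI bovine BHV: ratio of CC50 to antiviral IC50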
[3] = target: HSV-1 helicase-primase heterodimer enzyme complex (UL5-UL52-6xHis) (Human herpesvirus 1, UniProt P10189+P10236); experiment: HSV-1 DNA-dependent ATPase assay; conditions: for type of ATPase inhibition (mechanism): wild-type HSV-1 (F) helicase-primase
Sequence of HSV-1 helicase-primase heterodimer enzyme complex (UL5-UL52-6xHis) (P10236 whole entry): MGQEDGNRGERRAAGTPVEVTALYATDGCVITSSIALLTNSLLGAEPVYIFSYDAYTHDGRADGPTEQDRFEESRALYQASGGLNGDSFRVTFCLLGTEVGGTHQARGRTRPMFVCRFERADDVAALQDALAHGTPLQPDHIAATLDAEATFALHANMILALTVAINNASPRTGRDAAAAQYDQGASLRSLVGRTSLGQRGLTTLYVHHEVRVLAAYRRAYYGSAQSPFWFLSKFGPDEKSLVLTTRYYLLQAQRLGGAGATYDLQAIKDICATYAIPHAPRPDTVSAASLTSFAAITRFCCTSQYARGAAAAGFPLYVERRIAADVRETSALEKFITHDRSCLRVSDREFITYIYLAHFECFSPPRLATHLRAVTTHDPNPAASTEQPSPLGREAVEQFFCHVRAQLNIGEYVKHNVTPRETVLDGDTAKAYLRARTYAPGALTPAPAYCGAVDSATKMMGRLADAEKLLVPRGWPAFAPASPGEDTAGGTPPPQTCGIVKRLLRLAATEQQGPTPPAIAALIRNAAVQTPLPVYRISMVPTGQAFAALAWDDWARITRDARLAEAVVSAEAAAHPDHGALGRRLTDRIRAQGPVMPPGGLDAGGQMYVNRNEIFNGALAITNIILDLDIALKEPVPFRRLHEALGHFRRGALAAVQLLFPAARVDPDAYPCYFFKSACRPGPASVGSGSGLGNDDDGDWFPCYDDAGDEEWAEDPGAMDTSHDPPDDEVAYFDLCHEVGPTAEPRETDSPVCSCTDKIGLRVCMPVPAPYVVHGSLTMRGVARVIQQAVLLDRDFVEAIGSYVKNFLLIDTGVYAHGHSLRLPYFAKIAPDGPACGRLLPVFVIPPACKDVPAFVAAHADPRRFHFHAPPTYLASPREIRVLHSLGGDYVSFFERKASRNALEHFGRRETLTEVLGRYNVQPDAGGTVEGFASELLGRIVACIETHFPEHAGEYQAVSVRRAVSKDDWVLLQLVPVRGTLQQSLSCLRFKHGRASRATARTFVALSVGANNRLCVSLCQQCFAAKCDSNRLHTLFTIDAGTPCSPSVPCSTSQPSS
Sequence of HSV-1 helicase-primase heterodimer enzyme complex (UL5-UL52-6xHis) (P10189 whole entry): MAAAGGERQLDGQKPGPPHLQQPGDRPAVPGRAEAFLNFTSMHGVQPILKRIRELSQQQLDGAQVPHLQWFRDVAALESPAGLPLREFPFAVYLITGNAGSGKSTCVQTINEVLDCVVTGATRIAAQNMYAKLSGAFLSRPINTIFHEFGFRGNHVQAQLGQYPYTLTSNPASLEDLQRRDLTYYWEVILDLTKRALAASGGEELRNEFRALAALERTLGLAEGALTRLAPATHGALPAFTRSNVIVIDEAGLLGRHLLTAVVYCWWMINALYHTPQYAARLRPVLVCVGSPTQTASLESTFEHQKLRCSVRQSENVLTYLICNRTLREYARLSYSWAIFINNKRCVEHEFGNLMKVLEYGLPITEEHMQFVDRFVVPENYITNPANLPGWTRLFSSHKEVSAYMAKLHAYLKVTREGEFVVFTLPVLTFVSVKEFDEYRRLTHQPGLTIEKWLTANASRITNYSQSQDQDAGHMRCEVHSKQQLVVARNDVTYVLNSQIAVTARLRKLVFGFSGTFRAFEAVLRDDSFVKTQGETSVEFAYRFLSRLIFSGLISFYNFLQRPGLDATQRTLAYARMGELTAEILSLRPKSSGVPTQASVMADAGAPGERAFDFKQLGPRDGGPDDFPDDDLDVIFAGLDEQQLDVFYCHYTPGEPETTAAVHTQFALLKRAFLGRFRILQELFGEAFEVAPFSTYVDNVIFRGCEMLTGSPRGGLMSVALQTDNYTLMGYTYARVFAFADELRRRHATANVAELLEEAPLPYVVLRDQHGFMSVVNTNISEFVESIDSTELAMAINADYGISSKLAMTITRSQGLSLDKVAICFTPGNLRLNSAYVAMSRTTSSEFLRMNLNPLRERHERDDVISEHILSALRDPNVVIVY
Text: HSV-1 DNA-dependent ATPase assay (this in vitro assay permits testing for inhibition of the HSV-1 helicase-primase).
The HSV-1 helicase-primase heterodimer enzyme complex was [lacuna] with the aid of the recombinant baculovirus expression system in doubly infected Sf9 (Spodoptera frugiperda) cells. One recombinant baculovirus codes for the UL5 helicase gene and the second virus codes for the manipulated UL52-6×His primase gene.
The genes were amplified from the HSV-1 (F) genome by PCR (American Tissue Culture Collection ATCC VR-733) and cloned into the baculovirus (UL5→pFASTBAC1; UL52→pFASTHTb) as described in detail in the instruction manual for BAC-TO-BAC Baculovirus Expression Systems, Life-Technologies.
The purified heterodimeric helicase-primase complex (200 ng) was incubated with 1 μg of DNA (Sigma D3287 or D8681) in 20 mM HEPES (pH 7.6; 4-(2-hydroxyethyl)-1-piperazineethanesulphonic acid), 5 mM MgCl2, 0.2-5 mM ATP, 100 μg of BSA (bovine serum albumin) per ml, 10% glycerol, 1 mM DTT (DL-dithiothreitol) and, where appropriate, inhibitor in the appropriate concentration at 37° C. for 60 min.
The inhibition of the DNA-dependent ATPase activity was calculated from the change in the absorption in the presence and absence of inhibitor.
The Ki values were calculated with the assistance of the Sigma Plot software 4.0 and the method of nonlinear curve regression.
For this purpose, the ATPase activity of the helicase-primase heterodimer (detection through formation of inorganic phosphate (Pi)) was measured in the presence of saturated DNA concentrations and varying ATP and inhibitor concentrations, as explained in the ATPase assay section.

PRV = experiment: cells; type: cell-based, porcine (PRV); conditions: for IC50: read-out: IC50 porcine PRV
[4] = test system: Active substance-resistant HSV-1 (F) mutants; experiment: microbe, parasite or virus in culture; conditions: Human alphaherpesvirus 1, read-out: IC50 Active substance-resistant HSV-1 (F) mutants
[5] = test system: Acyclovir-resistant HSV-1 (F) mutants; experiment: microbe, parasite or virus in culture; type: cell-based, herpes simplex virus 1
[6] = in vitro viral replication assay, read-out: IC50 Wild-type HSV-1 (F)

CNS(=O)(=O)c1sc(N(C)C(=O)Nc2ccc(N3CCOCC3)cc2)nc1C [Example 2]
IC50 (HSV-2 G): 1500 nM | SI human HSV-2 G (HSV-2 G): 200 | in vivo lethal challenge model HSV-1 Walkie ED50 (HSV-1 Walkie): 26 mg/kg | in vivo lethal challenge model HSV-2 MS ED50 (HSV-2 MS): weak | IC50 (Wild-type HSV-1 (F); [6]): 500 nM | SI Wild-type HSV-1 (F) (Wild-type HSV-1 (F)): 400

Cc1nc(N(C)C(=O)Cc2ccc(-c3cc(F)ccc3F)cc2)sc1S(N)(=O)=O [Example 6]
IC50 ([1]; M1 + M2 (UL5 G352V)): > 125000 nM | activity on clinical isolates [2]: active on all the clinical isolates tested to date | in vivo lethal challenge model HSV-1 Walkie ED50 (HSV-1 Walkie): >0.5 mg/kg | in vivo lethal challenge model HSV-2 MS ED50 (HSV-2 MS): 0.5 mg/kg | IC50 (BHV): 30 nM | SI bovine BHV (BHV): 6660 | Concentration of liberated inorganic phosphate ([3]; inhibitor 0.00128 μM, ATP 0.3 mM): 0.066 mM | Concentration of liberated inorganic phosphate ([3]; inhibitor 0.00128 μM, ATP 0.4 mM): 0.067 mM | Concentration of liberated inorganic phosphate ([3]; inhibitor 0.00128 μM, ATP 0.6 mM): 0.085 mM | Concentration of liberated inorganic phosphate ([3]; inhibitor 0.00128 μM, ATP 0.8 mM): 0.099 mM | Concentration of liberated inorganic phosphate ([3]; inhibitor 0.00128 μM, ATP 1 mM): 0.108 mM | Concentration of liberated inorganic phosphate ([3]; inhibitor 0.00128 μM, ATP 3 mM): 0.127 mM | Concentration of liberated inorganic phosphate ([3]; inhibitor 0.0064 μM, ATP 0.3 mM): 0.040 mM | Concentration of liberated inorganic phosphate ([3]; inhibitor 0.0064 μM, ATP 0.4 mM): 0.045 mM | Concentration of liberated inorganic phosphate ([3]; inhibitor 0.0064 μM, ATP 0.6 mM): 0.062 mM | Concentration of liberated inorganic phosphate ([3]; inhibitor 0.0064 μM, ATP 0.8 mM): 0.064 mM | Concentration of liberated inorganic phosphate ([3]; inhibitor 0.0064 μM, ATP 1 mM): 0.071 mM | Concentration of liberated inorganic phosphate ([3]; inhibitor 0.0064 μM, ATP 3 mM): 0.113 mM | Concentration of liberated inorganic phosphate ([3]; inhibitor 0.032 μM, ATP 0.3 mM): 0.025 mM | Concentration of liberated inorganic phosphate ([3]; inhibitor 0.032 μM, ATP 0.4 mM): 0.029 mM | Concentration of liberated inorganic phosphate ([3]; inhibitor 0.032 μM, ATP 0.6 mM): 0.037 mM | Concentration of liberated inorganic phosphate ([3]; inhibitor 0.032 μM, ATP 0.8 mM): 0.044 mM | Concentration of liberated inorganic phosphate ([3]; inhibitor 0.032 μM, ATP 1 mM): 0.055 mM | Concentration of liberated inorganic phosphate ([3]; inhibitor 0.032 μM, ATP 3 mM): 0.085 mM | Concentration of liberated inorganic phosphate ([3]; inhibitor 0.16 μM, ATP 0.3 mM): 0.017 mM | Concentration of liberated inorganic phosphate ([3]; inhibitor 0.16 μM, ATP 0.4 mM): 0.022 mM | Concentration of liberated inorganic phosphate ([3]; inhibitor 0.16 μM, ATP 0.6 mM): 0.029 mM | Concentration of liberated inorganic phosphate ([3]; inhibitor 0.16 μM, ATP 0.8 mM): 0.033 mM | Concentration of liberated inorganic phosphate ([3]; inhibitor 0.16 μM, ATP 1 mM): 0.040 mM | Concentration of liberated inorganic phosphate ([3]; inhibitor 0.16 μM, ATP 3 mM): 0.066 mM | Concentration of liberated inorganic phosphate ([3]; inhibitor 0.8 μM, ATP 0.3 mM): 0.010 mM | Concentration of liberated inorganic phosphate ([3]; inhibitor 0.8 μM, ATP 0.4 mM): 0.013 mM | Concentration of liberated inorganic phosphate ([3]; inhibitor 0.8 μM, ATP 0.6 mM): 0.019 mM | Concentration of liberated inorganic phosphate ([3]; inhibitor 0.8 μM, ATP 0.8 mM): 0.023 mM | Concentration of liberated inorganic phosphate ([3]; inhibitor 0.8 μM, ATP 1 mM): 0.027 mM | Concentration of liberated inorganic phosphate ([3]; inhibitor 0.8 μM, ATP 3 mM): 0.054 mM | Concentration of liberated inorganic phosphate ([3]; inhibitor 4 μM, ATP 0.3 mM): 0.006 mM | Concentration of liberated inorganic phosphate ([3]; inhibitor 4 μM, ATP 0.4 mM): 0.007 mM | Concentration of liberated inorganic phosphate ([3]; inhibitor 4 μM, ATP 0.6 mM): 0.010 mM | Concentration of liberated inorganic phosphate ([3]; inhibitor 4 μM, ATP 0.8 mM): 0.012 mM | Concentration of liberated inorganic phosphate ([3]; inhibitor 4 μM, ATP 1 mM): 0.018 mM | Concentration of liberated inorganic phosphate ([3]; inhibitor 4 μM, ATP 3 mM): 0.044 mM | Concentration of liberated inorganic phosphate ([3]; inhibitor 20 μM, ATP 0.3 mM): 0.004 mM | Concentration of liberated inorganic phosphate ([3]; inhibitor 20 μM, ATP 0.4 mM): 0.004 mM | Concentration of liberated inorganic phosphate ([3]; inhibitor 20 μM, ATP 0.6 mM): 0.006 mM | Concentration of liberated inorganic phosphate ([3]; inhibitor 20 μM, ATP 0.8 mM): 0.010 mM | Concentration of liberated inorganic phosphate ([3]; inhibitor 20 μM, ATP 1 mM): 0.008 mM | Concentration of liberated inorganic phosphate ([3]; inhibitor 20 μM, ATP 3 mM): 0.030 mM | Concentration of liberated inorganic phosphate ([3]; inhibitor 100 μM, ATP 0.3 mM): 0.005 mM | Concentration of liberated inorganic phosphate ([3]; inhibitor 100 μM, ATP 0.4 mM): 0.006 mM | Concentration of liberated inorganic phosphate ([3]; inhibitor 100 μM, ATP 0.6 mM): 0.008 mM | Concentration of liberated inorganic phosphate ([3]; inhibitor 100 μM, ATP 0.8 mM): 0.008 mM | Concentration of liberated inorganic phosphate ([3]; inhibitor 100 μM, ATP 1 mM): 0.014 mM | Concentration of liberated inorganic phosphate ([3]; inhibitor 100 μM, ATP 3 mM): 0.032 mM | Ki ([3]; read-out: in vitro ATPase inhibition wild-type HSV-1 (F) Ki, nonlinear curve regression): 7 nM | type of ATPase inhibition (mechanism) [3]: un- | SI porcine PRV (PRV): 133 | IC50 (PRV): 1500 nM

Nc1nc2c(ncn2COCCO)c(=O)[nH]1 [Acyclovir, acyclovir, reference compound]
IC50 (HSV-2 G; Human alphaherpesvirus 2): 4000 nM | SI human HSV-2 G (HSV-2 G): 125 | IC50 [4]: 1000 nM | ED50 (HSV-1 Walkie): 22 mg/kg | ED50 (HSV-2 MS): 16 mg/kg | IC50 (Wild-type HSV-1 (F); Human alphaherpesvirus 1, in vitro viral replication assay, read-out: IC50 Wild-type HSV-1 (F)): 1000 nM | SI Wild-type HSV-1 (F) (Wild-type HSV-1 (F)): 250 | IC50 ([5]; Human alphaherpesvirus 1, read-out: IC50 Acyclovir-resistant HSV-1 (F) mutants): 125000 nM

Cc1nc(N(C)C(=O)Nc2ccc(N3CCOCC3)cc2)sc1S(=O)(=O)N(C)C [Example 1]
IC50 (HSV-2 G): 1500 nM | SI human HSV-2 G (HSV-2 G): 167 | IC50 ([1]; Mutant 1 (UL5 M355V, UL5 V6621, UL52 A897T)): > 250000 nM | activity on clinical isolates [2]: active on all the clinical isolates tested to date | in vivo lethal challenge model HSV-1 Walkie ED50 (HSV-1 Walkie): 60 mg/kg | in vivo lethal challenge model HSV-2 MS ED50 (HSV-2 MS): weak | IC50 (Wild-type HSV-1 (F); [6]): 750 nM | SI Wild-type HSV-1 (F) (Wild-type HSV-1 (F)): 350 | IC50 (BHV): 1500 nM | SI bovine BHV (BHV): >167 | IC50 ([5]; in vitro viral replication assay, read-out: IC50 Acyclovir-resistant HSV-1 (F) mutants): 750 nM | SI porcine PRV (PRV): >63 | IC50 (PRV): 4000 nM

Cc1nc(N(C)C(=O)Cc2ccc(-c3ccccn3)cc2)sc1S(N)(=O)=O [Example 7]
IC50 (HSV-2 G; Human alphaherpesvirus 2): 20 nM | SI human HSV-2 G (HSV-2 G): 3000 | activity on clinical isolates [2]: active on all the clinical isolates tested to date | ED50 (HSV-1 Walkie): 0.5 mg/kg | ED50 (HSV-2 MS): ~0.5 mg/kg | IC50 (Wild-type HSV-1 (F); Human alphaherpesvirus 1, read-out: IC50 Wild-type HSV-1 (F)): 20 nM | SI Wild-type HSV-1 (F) (Wild-type HSV-1 (F)): 2500 | IC50 (BHV; Bos taurus): 125 nM | SI bovine BHV (BHV): 240 | Ki [3]: 30 nM | type of ATPase inhibition (mechanism) [3]: uncom- | SI porcine PRV (PRV): >50 | IC50 (PRV; Sus scrofa): 5000 nM
